Test results published in ChEMBL document CHEMBL3621091, “Optimisation of a triazolopyridine based histone demethylase inhibitor yields a potent and selective KDM2A (FBXL11) inhibitor” (Medchemcomm, 2014).

How the values were obtained:
Format in all cases: physicochemical
Conditions in all cases: read-out: Peff
[1] = Membrane permeability of the compound at pH 7.4 by PAMPA
[2] = Membrane permeability of the compound at pH 6.2 by PAMPA
[3] = Membrane permeability of the compound at pH 5 by PAMPA

Structure (SMILES): COC(=O)c1ccnc(-c2cn([C@@H]3CCCN(C(=O)c4ccccc4)C3)nn2)c1
- Papp [1]: 52 ×10⁻⁶ cm/s
- Papp [2]: 45 ×10⁻⁶ cm/s
- Papp [3]: 56 ×10⁻⁶ cm/s

Structure (SMILES): O=C(O)c1ccnc(-c2cn([C@@H]3CCCN(C(=O)c4ccccc4)C3)nn2)c1
- Papp [1]: 0.69 ×10⁻⁶ cm/s
- Papp [2]: 0.41 ×10⁻⁶ cm/s
- Papp [3]: 1.9 ×10⁻⁶ cm/s
